We go through 1 compound from patent publication US8900444B2, “Switchable hydrophilicity solvents and methods of use thereof” (Queen's University at Kingston, priority 2009, dated 2014).

Type in all cases: physicochemical
A short description of data set [1]: Polarity study with solvatochromatic dye Nile Red (Example 3). Conditions: water-saturated BA or aqueous solution of BAB. The method, then: The maximum wavelength of absorption, λmax, of a switchable hydrophilicity solvent, N,N,N′-tributylpentanamidine (BA), was analyzed in its hydrophobic and hydrophilic forms using the solvatochromatic dye, Nile Red. A 1 Dram vial was prepared containing 1 mL of distilled water to which 1 mL of BA was added. […] This ensured saturation of the BA phase with water. The top phase comprising the BA liquid was pipetted into a quartz cuvette (Semi-Micro Cells, Self Masking Black Walls Spectrosil® Quartz, Starna Cells, Atascadero, Calif., USA) and 1 mg of Nile Red was added, to provide a bright orange-magenta solution. The ultraviolet absorbance spectrum was acquired on an Agilent Technologies ultraviolet/visible spectrometer 50-60 Hz with UV-Visible Chemstation software. The λmax was 510 nm. Distilled water (1.0 mL) was then added to the quartz cuvette and carbon dioxide was slowly bubbled into the mixture for 1 hour to switch the BA to its ionic form, N,N,N′-tributylpentanamidinium bicarbonate (BAB), after which the homogenous mixture turned purple. The ultraviolet absorbance spectrum of the aqueous solution of the dye and ionic salt was then acquired as discussed in the previous paragraph. The λmax was 570 nm.

Data set [2] in a line: Qualitative switchability assessment of BA (Example 1B). The note with it: 80 °C oil bath, stirred. From the text: The BA amidine's ability to act as a switchable hydrophilicity solvent for the separation of a selected substance is dependent on its ability to switch from the hydrophobic form to a hydrophilic form. This is achieved by adding water to provide an aqueous layer and decreasing the pH of the aqueous layer, namely by dissolving CO2 in the aqueous layer. When carbon dioxide dissolves in water, it forms carbonic acid with pKa1 of 6.4. The resultant dissociation is sufficient to protonate a hydrophobic amidine, causing it to become charged forming a hydrophilic amidinium bicarbonate (BAB). In this preliminary switching study, the amidine's ability to act as a base and its ability to switch hydrophilicity were studied.
Switching behavior was studied for BA over various periods of time. A glass vial (4 mL) was prepared, containing distilled water (1.0 mL) and BA amidine (0.5 mL).
CO2 was bubbled through the vial for roughly 30 minutes, until the top layer had disappeared showing that a hydrophilic solution of BAB in water had been formed.
A magnetic stirrer was placed in the vial. The vial was suspended in an 80° C. oil bath and stirred. The vial was intermittently removed from the bath and monitored for the presence of a second layer after 20, 50 and 75 minutes. The formation of a second layer (hydrophobic BA) was noted after 20 minutes in the oil bath.

A short description of data set [3]: Quantitative switching study of BA by 1H NMR (Example 1D). The procedure:
A methanol-d4 solution was prepared containing a sodium acetate internal standard (48.8 mM).
Two 4 mL glass vials containing 1.0 mL D2O and 0.5 mL BA were prepared and shaken. A 50 μL sample was withdrawn from each layer of one vial and combined with 0.50 mL of the sodium acetate standard solution in each of two NMR tubes: the top layer (BA) in a first tube; the bottom layer (aqueous) in a second tube.
Carbon dioxide was bubbled through the unsampled vial until the BA had completely converted to BAB, as evidenced by the disappearance of the top layer. The pH of the solution was measured using pH paper to be approximately 8-9. A 50 μL sample was withdrawn from the BAB/D2O solution and added to 0.50 mL of the sodium acetate standard solution in a third NMR tube.
The 4.0 mL vial from which the last NMR sample was withdrawn was then heated at 80° C. for 1 h and stirred by a magnetic stirrer. Bubbles of CO2 were observed escaping from the solution and a top layer, hydrophobic amidine, appeared. After cooling the vial to room temperature, a 50 μL sample was withdrawn from each layer and combined with 0.50 mL of the sodium acetate standard in two NMR tubes: the top layer (BA) in a fourth tube; the bottom layer (aqueous) in a fifth tube.
The NMR spectra of all five samples are shown in FIG. 10 with the first to fifth tubes shown from top to bottom. […] In addition, using the ‘c’ and ‘d’ protons provided stronger signals, to improve accuracy. Based on the strength of the ‘c’ and ‘d’ signals, 11% of the BA remained in the aqueous phase as BAB after the experiment
Using dioxane as the internal standard gave the same results (11% BAB retention in the aqueous phase) as sodium acetate.
The same experiment was repeated except that the temperature of the heating of the 4.0 mL vial was increased from 80° C. to 90° C. A similar retention of BAB in the aqueous phase (12%) was observed.

Regarding `CCCCN=C(CCCC)N(CCCC)CCCC.O=C(O)O` [BAB, N,N,N′-tributylpentanamidinium bicarbonate], the “maximum wavelength of absorption (λmax) of Nile Red” value in data set [1] worked out at 570 nm. In addition, the “heating time to formation of second (hydrophobic) layer” value in data set [2] is 20 min. Further, the “BAB retention in the aqueous phase after heating” value in data set [3] (80 °C, 1 h, dioxane internal standard) stood at 11%. In data set [3] (90 °C), the “retention of BAB in the aqueous phase after heating” value is on record as 12%. The “pH of solution after complete conversion with CO2” value in data set [3] (BAB/D2O solution, pH paper) is listed as 8-9. The “BAB ionic form converted back to BA” value in data set [3] (after heating for 1 hour) is listed as > 90%.
